Experimental findings from PubChem BioAssay AID2060599 (Molecular Pharmacology Branch, DTP, NCI, 2025) are described below.

For the test, the system named is 817829-284-R-J1-PDC complex spheroids, viability. Briefly: Anticancer human tumor 817829-284-R-J1-PDC patient-derived colon adenocarcinoma cell line growth inhibition [CLK]. Conditions: for viability, T/C: stronger effect = lower value; for pIC50: curve of compound. The source says: A high-throughput screen of multi-cell type tumor spheroids was designed to identify active combinations of […] and targeted small molecules. Complex spheroids include a stromal component modeled by human endothelial cells (HUVEC) and fibroblasts modeled by human mesenchymal stem cells (MSCs). The concentration ranges selected for each drug and investigational agent were based upon clinically achievable concentrations if the clinical Cmax of the agent was known.
Compounds. The drugs and investigational agents: cirtuvivint (SM08502; NSC835563), CC-671 (NSC850746), vemurafenib (NSC761431), tapotoclax (NSC804041), sotorasib (NSC818433), adagrasib (NSC831453), MRTX-1133 (NSC836407), BAY2416964 (NSC825713), copanlisib (NSC816437), inavolisib (NSC800729), abemaciclib (NSC768073), osimertinib (NSC779217), entinostat (NSC756642), eltanexor (KPT-8602, NSC794443), venetoclax (NSC766270), ceralasertib (NSC777638), bortezomib (NSC756655), olaparib (NSC753686), talazoparib (NSC767125), alisertib (NSC759677), peposertib (NSC802822), gemcitabine (NSC613327), 5-fluorouracil (NSC19893), SN-38 (NSC673596), oxaliplatin (NSC266046), paclitaxel (NSC125973), and doxorubicin (NSC123127), were obtained from the National Cancer Institute (NCI) Developmental Therapeutics Program Chemical Repository. The FDA-approved anticancer drug set is available from the Developmental Therapeutics Program at https://dtp.cancer.gov/organization/dscb/obtaining/available plates.htm. […] The stock solutions were prepared in dimethyl sulfoxide (DMSO, Sigma-Aldrich, St. Louis, MO, cat. D2650), except for the platinum complexes which were prepared in saline (Quality Biological, Gaithersburg, MD, cat. 114-055-101), at 800-fold the tested concentration and stored at -70 degrees C prior to their use. All drugs and investigational agents were tested over a range starting from a high concentration at or near the clinical Cmax and decreasing in half-log increments. If the clinical Cmax for an agent had not been determined, the highest concentration tested was 10 microM.
Cell Culture. All cells were maintained in an incubator at 37 degrees C and 5% CO2 with 95% humidity. The PDC lines were cultured according to standard operating procedures established by the NCI PDMR. Briefly, all PDCs were thawed and cultured in Matrigel-coated flasks prepared with a working solution of 1X Ham's F-12 nutrient mix, without supplementation (Invitrogen, Waltham, MA, cat. 11765054), 100 U/mL penicillin-streptomycin (Invitrogen, cat. 15140122), and 2.5% Matrigel (Corning Inc., Corning, NY, cat. 354248) for the first three passages. The 947758-054-R-J2-PDC line was cultured in 6B/Colon 1A media, which includes advanced DMEM/F-12 (Thermo Fisher Scientific, cat. 12634028), 10 mM HEPES (Thermo Fisher Scientific, cat. 15630080), 1X GlutaMAX supplement (Thermo Fisher Scientific, cat. 35050061), 0.1 mg/mL primocin (InvivoGen, cat. ant-pm-2), 10% defined fetal bovine serum, heat inactivated (HyClone Laboratories Inc., cat. SH30070.03HI), 1.25 mM N-Acetyl-L-cysteine (Sigma-Aldrich, cat. A9165), 10 mM nicotinamide (Sigma-Aldrich, cat. N0636), 1X B-27 supplement (Thermo Fisher Scientific, cat. 17504044), 1X N-2 supplement (Thermo Fisher Scientific, cat. 17502048), and 10 microM Y-27632 dihydrochloride (Tocris Bioscience, cat. 1254). The 876862-298-R-J1-PDC was cultured in 6E media, which includes all 6B/Colon 1A media components plus 50% L-WRN conditioned media (ATCC, cat. CRL-3276), 50 ng/mL recombinant human EGF recombinant protein (hEGF; Thermo Fisher Scientific, cat. PHG0311), 10 ng/mL recombinant human fibroblast growth factor 10 (hGFG-10; PeproTech, cat. 100-26), 1 ng/mL recombinant human fibroblast growth factor 2 (hFGF-2; PeproTech, cat. 100-18B), and 1 µM prostaglandin E2 (PGE2; Tocris, cat. 2296). The 227483-062-R1-J1-PDC line was cultured in Panc media, containing all 6E components except hFGF-2, with the addition of 500 nM SB-431542 (Selleckchem, cat. S1067) and 10 nM gastrin (Tocris, cat. 3006). […]

The structures appear in SMILES notation. pIC50: −log10 of the molar value. Where “and” joins values, the source holds several entries; their conditions need not be identical. Equal entries are not always repeated.
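Further: spheroids exposed to the agents for seven days before readout.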

As for `COC1C=CCC(C)C(C)S(=O)(=O)NC(=O)c2ccc3c(c2)N(CC2CCC21)CC1(CCCc2cc(Cl)ccc21)CO3` (centres undefined), the negative-log IC50 (pIC50) is 5.39 and 5.30. Also, the viability, T/C (compound 0.0316 µM) is 125% and 85.6%. The viability, T/C (compound 0.1 µM) was 98.4% and 97.6%. Besides, the viability, T/C (compound 0.316 µM) is 90.7% and 66.9%. For the same compound, the viability, T/C (compound 1 µM) is 91.7% and 93.4%. The viability, T/C (compound 3.16 µM) is 65.8% and 79%. The viability, T/C (compound 10 µM) is 8.51% and 6.66%.

For the compound `Cn1ncnc1[C@H]1c2n[nH]c(=O)c3cc(F)cc(c23)N[C@@H]1c1ccc(F)cc1`, the pIC50 is 8.47 and 7.65. The viability, T/C (compound 0.000316 µM) was 65.2% and 92.2%. For the same compound, where the note is “compound 0.001 µM”, the viability, T/C was 93.3% and 76.2%. The viability, T/C (compound 0.00316 µM) is 50.8% and 73.8%. For the same compound, for the setting “compound 0.01 µM”, the viability, T/C was 48.2% and 62.2%. In addition, where the note is “compound 0.0316 µM”, the viability, T/C was 34.8% and 42%. The viability, T/C (compound 0.1 µM) was 33.3% and 35.4%.

One may read the viability, T/C as the result in the treated group divided by that in the control group, in per cent. What is called pIC50 is the IC50 on a negative log10 scale, so that one unit is a factor of ten.
